Source: patent US10793915B2, “Context dependent diagnostics test for guiding cancer treatment” (Eutropics Pharmaceuticals, Inc., priority 2015, dated 2020)

What was measured:
[1] = test system: AML blasts from patient peripheral blood or bone marrow; test: BH3 profiling (mitochondrial profiling): JC-1 mitochondrial depolarization (% priming) of gated AML blasts exposed to BH3 peptides; type: cell-based, human; settings: for Median CR (n = 23) / Median CR (n = 13): complete remission patients; for Median NR (n = 29) / Median NR (n = 18): non-responders
Description: Rows that are shaded grey are samples that failed the acceptance criteria of BH3 profiling during processing. […] Signal to noise is a measure of the DMSO JC-1 red mean fluorescence intensity (MFI) over the CCCP JC-1 read MFI. The cell counts and percent viability were determined by manual cell counting with trypan blue exclusion. Percent blasts are the percentages of CD45-dim, CD3/CD20 negative, and SSC-low of the permeabilized viable cells. All BH3 profiling was performed on those gated blast cells.
Briefly, frozen, extracted leukocyte samples were rapidly thawed, and cell viability was determined by Trypan Blue exclusion. Cells were washed in FACS buffer (1x PBS with 2% FBS) and immunophenotyped using fluorescently labeled CD45, CD3, and CD20 monoclonal antibodies. Cells were then resuspended in Newmeyer buffer (10 mM Trehalose, 10 mM HEPES, 80 mM KCl, 20 μM EGTA, 20 μM EDTA, 5 mM succinate, pH 7.4) for the perturbation step. The BH3 peptides were diluted in Newmeyer buffer to make working solutions resulting in final concentrations of: BIM (100 μM), BIM (0.1 μM), NOXA (100 μM), Puma (10 μM), HRK (100 μM), BAD (100 μM), and BID (1.0 μM). DMSO and CCCP were used as negative and positive peptide controls. Digitonin and oligomycin were added to individual FACS tubes, followed by the BH3 peptides. Cells were then added to the FACS tubes and incubated for 2 hours and 15 minutes at room temperature, in order for cell permeabilization, delivery of peptides or compounds, and mitochondrial depolarization to occur. After the incubation, JC-1 dye was prepared in Newmeyer buffer and added to directly to the treated cells. An additional tube of cells that was not treated with a peptide or compound was stained with propidium iodide (PI) to ensure that cells were effectively permeabilized by the digitonin. After 45 minutes of incubation with JC-1, cells were analyzed on a three laser BD FACSCanto II. AML Blasts were gated based on four parameters: 1) permeabilization (as determined by PI staining), 2) singlet discrimination based on SSC, 3) CD45 dim and CD3/CD20 negative, and 4) SSC low. The median JC-1 red fluorescence of the gated blast population was then used to calculate % depolarization as compared to DMSO (negative) and CCCP (positive) controls.
For each peptide, the percentage priming was calculated using the following formula that determines the priming based on the DMSO negative control as completely unprimed and the CCCP as a 100% primed reference:
For analysis, all patients not classified as CR were treated as non-responders [Minimal Residual Disease (MRD), Partial Remission (PR), and TF (treatment failure)]. Student's t-tests, Mann-Whitney rank-sum non-parametric tests, multi-variate logistic regression, and ROC curve analyses, between the BH3 peptides (and other tumor characteristics, such as cytogenetics, etc.) and response, were calculated using GraphPad Prism Version 5.04 and MedCalc Version 14.8.1.

[2] = test system: three suspension cancer cell lines; test: PraediCare Dx FACS BH3 profiling with BH3 mimetic compound applied to permeabilized cells; type: cell-based; settings: cell lines primed by NOXA
Source text: To further probe MCL-1 dependencies we explored the utility of certain BH3 mimetic compounds to provide an alternative to the NOXA readout to determine MCL-1 dependency in cancer cells. Our approach was to directly apply membrane permeable BH3 mimetic compounds that selectively target MCL1. Doing so would add the advantage of directly observing on target activity of the therapeutic agent.

[3] = Table 6, median percentage priming, all samples
[4] = Table 8, median percentage priming, bone marrow samples only
[5] = median percentage priming, bone marrow samples only

| Compound | Median CR (n = 23) [1, 3] | Median NR (n = 29) [1, 3] | Median CR (n = 13) [1, 4] | Median NR (n = 18) [1, 4] | median depolarization (priming) ([1]; all responses, all profiled patient samples) | NOXA priming in patients that did not respond ([1]; bone marrow samples only) | NOXA priming in patients that respond to treatment ([1]; bone marrow samples only) | Median CR (n = 23) ([1]; median percentage priming of blasts, all samples (blood and marrow)) | Median NR (n = 29) ([1]; median percentage priming of blasts, all samples (blood and marrow), BIM 100/0.1 μM, NOXA 100 μM, Puma 10 μM, HRK 100 μM, BAD 100 μM, BID 1.0 μM) | Median CR (n = 13) [1, 5] | Median NR (n = 18) [1, 5] | mitochondrial response to the compound (priming) [2] |
| --- | --- | --- | --- | --- | --- | --- | --- | --- | --- | --- | --- | --- |
| NOXA: NOXA BH3 peptide, 100 μM; in some aspects AELPPEFAAQLRKIGDKVYC (SEQ ID NO:1) (listed as Homo sapiens) | 17.2 | 20.2 | 44.5 | 5.2 | 16.0% | 5.2% | 44.5% | 17.2 | 20.2 | 44.5 | 5.2 | – |
| CCN1CCN(C(c2ccc(C(F)(F)F)cc2)c2ccc3cccnc3c2O)CC1 (stereo not drawn) [EU5346] | – | – | – | – | – | – | – | – | – | – | – | responsive |
